The test system of data set [1] is Canis familiaris. Description: Total electrolytic excretion of sodium in urine of dogs after intravenous administration of 34.1 uM/Kg of drug. Format: ADME, organism-based, Canis lupus familiaris. The conditions noted are these: dog, in vivo.
In data set [2] the test system is Canis familiaris. The data set can be described thus: Total electrolytic excretion of chlorine in urine of dogs after intravenous administration of 3.03 uM/Kg of drug. It counts as ADME, organism-based, Canis lupus familiaris. Particulars: dog, in vivo.
The subject of data set [3] is Rattus norvegicus. Description: Ratio of Total electrolytic excretion of sodium and potassium in urine of rats after intravenous administration of 34.1 uM/Kg of drug. The conditions noted are these: in vivo. It counts as ADME, organism-based.
The species entered for data set [4] is Canis familiaris. The data set can be described thus: Systemic cardio vascular Hemodynamics of mean arterial pressure was measured in Beagle dogs after giving the dose of MNX plus the drug. Format: functional, Canis lupus familiaris, Heart.
Data set [5] relates to Rattus norvegicus. The data set can be described thus: Ratio of Total electrolytic excretion of sodium and potassium in urine of rats after intravenous administration of 30.3 uM/Kg of drug. The conditions noted are these: in vivo. Format: ADME, organism-based.
Data set [6] deals with Rattus norvegicus. The data set can be described thus: Total electrolytic excretion of potassium in urine of rats after peroral administration of 68.1 uM/Kg of drug. Format: ADME, organism-based. The conditions noted are these: in vivo, po.
Data set [7] is filed under the species Canis familiaris. Description: Systemic cardio vascular Hemodynamics of heart rate was measured in Beagle dogs in pretreatment control group. Format: functional, Canis lupus familiaris.
Data set [8] is filed under the species Canis familiaris. Description: Systemic cardio vascular Hemodynamics of cardiac index was measured in Beagle dogs after giving the dose of MNX plus the drug. It counts as functional, Canis lupus familiaris, Heart.
The species entered for data set [9] is Canis familiaris. Description: Systemic cardio vascular Hemodynamics of total peripheral resistance was measured in Beagle dogs in pretreatment control group. It counts as functional, Canis lupus familiaris, Heart.
Data set [10] deals with Rattus norvegicus. Description: Total electrolytic excretion of potassium in urine of rats after peroral administration of 341 uM/Kg of drug. It counts as ADME, organism-based. Particulars: in vivo, po.
For data set [11], the system named is Canis familiaris. The data set can be described thus: Total electrolytic excretion of sodium in urine of dogs after peroral administration of 34.1 uM/Kg of drug. Particulars: dog, in vivo, po. Format: ADME, organism-based, Canis lupus familiaris.
For data set [12], the species on record is Canis familiaris. Description: Tissue vascular resistance of left ventricle was measured in Beagle dogs after giving the dose of MNX. Format: functional, Canis lupus familiaris, Heart left ventricle.
The species named for data set [13] is Canis familiaris. The data set can be described thus: Tissue vascular resistance of left ventricle was measured in Beagle dogs before treatment. Format: functional, Canis lupus familiaris, Heart left ventricle.
Data set [14] deals with Canis familiaris. Description: Tested for the diuretic activity by measuring the urinary volume after intravenous administering 3.03 uM/Kg of drug in dogs. Format: ADME, organism-based, Canis lupus familiaris, Urine. The conditions noted are these: dog, in vivo.
For data set [15], the species on record is Canis familiaris. Description: Tissue vascular resistance of pancreas was measured in Beagle dogs after giving the dose of MNX plus the drug. Format: functional, Canis lupus familiaris.
The species entered for data set [16] is Canis familiaris. The data set can be described thus: Tissue vascular resistance of large intestine was measured in Beagle dogs before treatment. It counts as functional, Canis lupus familiaris.
For data set [17], the species on record is Canis familiaris. The data set can be described thus: Systemic cardio vascular Hemodynamics of heart rate was measured in Beagle dogs after giving the dose of MNX. It counts as functional, Canis lupus familiaris.
For data set [18], the system named is Canis familiaris. Description: Total electrolytic excretion of potassium in urine of dogs after intravenous administration of 30.3 uM/Kg of drug. Format: ADME, organism-based, Canis lupus familiaris. Particulars: dog, in vivo.
The test system of data set [19] is Canis familiaris. Description: Total electrolytic excretion of sodium in urine of dogs after peroral administration of 68.1 uM/Kg of drug. Format: ADME, organism-based, Canis lupus familiaris. The conditions noted are these: dog, in vivo, po.
The species entered for data set [20] is Canis familiaris. Description: Systemic cardio vascular Hemodynamics of total peripheral resistance was measured in Beagle dogs after giving the dose of MNX. Format: functional, Canis lupus familiaris, Heart.
Data set [21] concerns Canis familiaris. The data set can be described thus: Tested for the diuretic activity by measuring the urinary volume after peroral administering 68.1 uM/Kg of drug in dogs. Particulars: dog, in vivo, po. Format: ADME, organism-based, Canis lupus familiaris, Urine.

Turning to `C1CCC(N=C(NC2CCCCC2)N2CCOCC2)CC1`, the “Excretion Na+” value with Canis familiaris [1] is listed as 18.6 m equiv; in the data set with Canis familiaris [11], 9.9 m equiv; in the data set with Canis familiaris [19], 14 m equiv. In addition, in the data set on Canis familiaris [2], the “Excretion Cl-” value is listed as 5.4 m equiv. The Ratio stood at 17.4 in the data set with Rattus norvegicus [3] and 8.6 with Rattus norvegicus [5]. In the data set filed under Canis familiaris [4], the MAP is 118 mmHg. Moreover, the results for the “Excretion K+” value with Rattus norvegicus [6], in the data set on Rattus norvegicus [10] and with Canis familiaris [18] were 2 m equiv, 0.34 m equiv and 1.6 m equiv, respectively. In addition, the HR is 87 beats min-1 in the data set filed under Canis familiaris [7] and 138 beats min-1 in the data set filed under Canis familiaris [17]. In the data set listed under Canis familiaris [8], the CI worked out at 138 mL/min/kg. Further, the TPR in the data set listed under Canis familiaris [9] was 0.56 mmHg·min·kg/mL; in the data set listed under Canis familiaris [20] it was 0.3 mmHg·min·kg/mL. Also, the TVR in the data set listed under Canis familiaris [12] was determined as 10 mmHg·min·g/mL; in the data set listed under Canis familiaris [13], 112 mmHg·min·g/mL; in the data set listed under Canis familiaris [15], 219 mmHg·min·g/mL; in the data set filed under Canis familiaris [16] it was 264 mmHg·min·g/mL. Moreover, the V stood at 64 mL in the data set with Canis familiaris [14] and 91 mL in the data set on Canis familiaris [21].

The values above are taken from ChEMBL document CHEMBL1127385, “Synthesis and diuretic activity of alkyl- and arylguanidine analogs of N,N'-dicyclohexyl-4-morpholinecarboxamidine in rats and dogs” (J Med Chem, 1994).
